Results taken from ChEMBL document CHEMBL1128639, “Mechanism of inhibition of poly(ADP-ribose) glycohydrolase by adenosine diphosphate (hydroxymethyl)pyrrolidinediol” (J Med Chem, 1995).

Columns and labels:
[1] = Compound was tested for its inhibitory activity against venom NAD glycohydrolase; set-up: species or system Bungarus fasciatus
[2] = Compound was tested for the inhibitor activity against NAD glycohydrolase.; set-up: species or system Bungarus fasciatus
[3] = molecular target: Poly(ADP-ribose) glycohydrolase (Bos taurus) (UniProt O02776); experiment: Kid describes the approach of hyperbolic function to its new limiting value as [I] increases, for the 1/V vs [I] replot.
Chain of Poly(ADP-ribose) glycohydrolase (Bos taurus) (O02776 whole entry): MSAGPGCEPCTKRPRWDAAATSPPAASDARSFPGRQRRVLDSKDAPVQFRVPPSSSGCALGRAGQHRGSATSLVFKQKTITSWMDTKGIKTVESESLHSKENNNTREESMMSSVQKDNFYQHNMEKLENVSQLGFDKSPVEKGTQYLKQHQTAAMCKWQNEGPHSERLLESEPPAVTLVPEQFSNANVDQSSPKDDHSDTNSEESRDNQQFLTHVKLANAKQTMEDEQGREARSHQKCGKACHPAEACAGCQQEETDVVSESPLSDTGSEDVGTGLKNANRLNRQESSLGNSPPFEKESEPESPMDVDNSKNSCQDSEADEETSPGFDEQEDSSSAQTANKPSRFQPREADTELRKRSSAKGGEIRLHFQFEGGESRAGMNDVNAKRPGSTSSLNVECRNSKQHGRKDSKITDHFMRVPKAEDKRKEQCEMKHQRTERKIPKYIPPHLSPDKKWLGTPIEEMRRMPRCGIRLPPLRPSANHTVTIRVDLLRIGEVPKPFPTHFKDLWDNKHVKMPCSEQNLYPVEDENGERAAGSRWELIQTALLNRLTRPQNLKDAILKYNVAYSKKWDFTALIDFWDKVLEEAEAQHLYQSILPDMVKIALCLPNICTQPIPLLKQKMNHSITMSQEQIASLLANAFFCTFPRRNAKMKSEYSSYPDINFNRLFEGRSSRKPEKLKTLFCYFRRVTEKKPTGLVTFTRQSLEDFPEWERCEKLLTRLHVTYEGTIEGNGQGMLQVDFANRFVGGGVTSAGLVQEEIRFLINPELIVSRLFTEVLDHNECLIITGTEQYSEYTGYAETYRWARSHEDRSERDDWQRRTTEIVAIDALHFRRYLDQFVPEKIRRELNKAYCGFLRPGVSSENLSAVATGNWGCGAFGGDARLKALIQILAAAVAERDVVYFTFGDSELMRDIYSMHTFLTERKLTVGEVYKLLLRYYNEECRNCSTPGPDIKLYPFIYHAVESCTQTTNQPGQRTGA

[4] = molecular target: Poly(ADP-ribose) glycohydrolase (Bos taurus) (UniProt O02776); experiment: Kid describes the approach of hyperbolic function to its new limiting value as [I] increases, for the KM/V vs [I] replot.
[5] = molecular target: Poly(ADP-ribose) glycohydrolase (Bos taurus) (UniProt O02776); experiment: Inhibitor dissociation constant for the 1/V vs [I] replot.
[6] = molecular target: Poly(ADP-ribose) glycohydrolase (Bos taurus) (UniProt O02776); experiment: Inhibitor dissociation constant was determined by the analysis of the slope versus [inhibitor] replot.e.K

Nc1ncnc2c1ncn2[C@@H]1O[C@H](COP(=O)(O)OP(=O)(O)OC[C@H]2NC[C@H](O)[C@@H]2O)[C@@H](O)[C@H]1O [ADENOSINE DIPHOSPHATE (HYDROXYMETHYL)PYRROLIDINEDIOL]
IC50 [1]: 260 µM | Ki [2]: 94 µM | Kid [3]: 0.21 µM | Kid [4]: 0.26 µM | Kin [5]: 0.052 µM | Kin [6]: 0.08 µM
